This test deals with rat small-intestinal brush border membrane vesicles. Kind of test: Inhibitory effect on 33PO4 uptake into rat small-intestinal brush border membrane vesicles (rapid filtration method). It is filed as biochemical, Wistar female rat. To be noted: 1 µM test compound, 33PO4 uptake into rat small-intestinal BBMVs, 60 seconds. Here is the method:
The ^33PO4 transport activity of the small-intestinal BBMVs was determined by the rapid filtration method. […] Then, ice-cold buffer C (110 mM NaCl, 1 mM KH2PO4, and 10 mM HEPES (pH 7.5)) was added to each reaction mixture, which was immediately suction-filtered through a Millipore filter. The filter was washed with buffer C, and each sample was then dissolved in a liquid scintillator. The amount of ^33PO4 uptake into BBMVs was measured using a liquid scintillation counter. […]

These results are taken from patent EP2975030B1, “DIHYDROPYRIDAZINE-3,5-DIONE DERIVATIVE” (Chugai Seiyaku Kabushiki Kaisha, priority 2013, dated 2014).

On to `C[C@]12CCCN1N(Cc1ccc(OCCN3CCOCC3)c(Cl)c1)C(=O)C(C(=O)Nc1ccc(C(F)(F)F)cc1-c1ccc(C(F)(F)F)nc1)=C2O` [Example 149, (4aR)-1-[[3-Chloro-4-(2-morpholin-4-ylethoxy)phenyl]methyl]-4-hydroxy-4a-methyl-2-oxo-N-[4-(trifluoromethyl)-2-[6-(trifluoromethyl)pyridin-3-yl]phenyl]-6,7-dihydro-5H-pyrrolo[1,2-b]pyridazine-3-carboxamide], for which the “Rate of uptake inhibition (%) (1 µM)” value worked out at 80%.

For the compound `COc1cc(-c2cc(C(F)(F)F)ccc2NC(=O)C2=C(O)C(C)(C)N(C)N(Cc3cccc(F)c3F)C2=O)cnc1C#N` [Example 302], the “Rate of uptake inhibition (%) (1 µM)” value is 79%.

As for `CN1N(Cc2ccc(OCCN3C4CCC3COC4)c(F)c2F)C(=O)C(C(=O)Nc2ccc(C(F)(F)F)cc2-c2cc(C(F)(F)F)ncn2)=C(O)C12CCCC2` [Example 367], the “Rate of uptake inhibition (%) (1 µM)” value was found to be 43%.

On to `CN1N(Cc2ccc(OCCN3CCOCC3)c(F)c2F)C(=O)C(C(=O)Nc2ccc(C(F)(F)F)cc2-c2ccc(C(F)(F)F)nc2)=C(O)C1(C)C` [Example 314, 2-[[2,3-Difluoro-4-(2-morpholin-4-ylethoxy)phenyl]methyl]-5-hydroxy-1,6,6-trimethyl-3-oxo-N-[4-(trifluoromethyl)-2-[6-(trifluoromethyl)pyridin-3-yl]phenyl]pyridazine-4-carboxamide], for which the “Rate of uptake inhibition (%) (1 µM)” value amounted to 72%.

On to `C[C@]12CCCN1N(Cc1cccc(C#N)c1)C(=O)C(C(=O)Nc1cc(F)c(Br)c(F)c1)=C2O` [Example 220], for which the “Rate of uptake inhibition (%) (1 µM)” value is given as 96%.

Take `COc1cccc(-c2cc(C(F)(F)F)ccc2NC(=O)C2=C(O)[C@@]3(C)CCCN3N(Cc3ccc(OC[C@H]4CCCO4)c(F)c3F)C2=O)c1OC` [Example 159]: the “Rate of uptake inhibition (%) (1 µM)” value turned out to be 89%.

As to `COC(=O)CN(C)c1ncc(-c2cc(C(F)(F)F)ccc2NC(=O)C2=C(O)[C@@]3(C)CCCN3N(Cc3cccc(F)c3F)C2=O)cc1C#N` [Example 112], the “Rate of uptake inhibition (%) (1 µM)” value is recorded as 43%.

Regarding `CN1N(Cc2ccc(OCCN3CCOCC3(C)C)c(F)c2F)C(=O)C(C(=O)Nc2ccc(C(F)(F)F)cc2-c2cc(C(F)(F)F)ncn2)=C(O)C12CCCC2` [Example 371], the “Rate of uptake inhibition (%) (1 µM)” value was 38%.

In the case of `CC(C)[C@H]1C(O)=C(C(=O)Nc2cc(F)c(Br)c(F)c2)C(=O)N(Cc2cccc(F)c2F)N1C` [Example 254], the “Rate of uptake inhibition (%) (1 µM)” value was 58%.

For `COc1cccc(-c2cc(C(F)(F)F)ccc2NC(=O)C2=C(O)[C@@]3(C)CCCN3N(Cc3ccc(C#CCOCCCO)c(F)c3F)C2=O)c1OC` [Example 127], the “Rate of uptake inhibition (%) (1 µM)” value was 95%.

As to `CN1N(Cc2ccc(NCCCN3CCOCC3)c(F)c2F)C(=O)C(C(=O)Nc2ccc(C(F)(F)F)cc2-c2cc(C(F)(F)F)ncn2)=C(O)C12CCCC2` [Example 446], the “Rate of uptake inhibition (%) (1 µM)” value worked out at 31%.

For `CN(C[C@H](O)[C@@H](O)[C@H](O)[C@H](O)CO)C(=O)COCCOCCOCCOCCOc1ccc(CN2C(=O)C(C(=O)Nc3ccc(C(F)(F)F)cc3-c3cc(C(F)(F)F)ncn3)=C(O)C3(CCCC3)N2C)c(F)c1F` [Example 441, 7-[[2,3-Difluoro-4-[2-[2-[2-[2-[2-[methyl-[(2S,3R,4R,5R)-2,3,4,5,6-pentahydroxyhexyl]amino]-2-oxoethoxy]ethoxy]ethoxy]ethoxy]ethoxy]phenyl]methyl]-10-hydroxy-6-methyl-8-oxo-N-[4-(trifluoromethyl)-2-[6-(trifluoromethyl)pyrimidin-4-yl]phenyl]-6,7-diazaspiro[4.5]dec-9-ene-9-carboxamide], the “Rate of uptake inhibition (%) (1 µM)” value was 22%.

Take `C[C@]12CCCN1N(Cc1ccc(OC[C@H]3CCCO3)c(F)c1F)C(=O)C(C(=O)Nc1ccc(C(F)(F)F)cc1-c1ccc(C(F)(F)F)nc1)=C2O` [Example 160]: the “Rate of uptake inhibition (%) (1 µM)” value turned out to be 77%.

As for `C[C@]12CCCN1N(Cc1cc(F)c(F)cc1F)C(=O)C(C(=O)Nc1cc(F)c(Br)c(F)c1)=C2O` [Example 194], the “Rate of uptake inhibition (%) (1 µM)” value is reported as 80%.

As to `C[C@]12CCCN1N(Cc1c(F)cc(C#CCN3CCOCC3)cc1F)C(=O)C(C(=O)Nc1ccc(C(F)(F)F)cc1-c1ccc(C(F)(F)F)nc1)=C2O` [Example 132], the “Rate of uptake inhibition (%) (1 µM)” value was 71%.

For the compound `COc1cncc(-c2cc(C(F)(F)F)ccc2NC(=O)C2=C(O)[C@@]3(C)CCCN3N(Cc3cccc(F)c3F)C2=O)c1` [Example 81], the “Rate of uptake inhibition (%) (1 µM)” value is on record as 74%.

`CC(C)[C@@H]1C(O)=C(C(=O)Nc2ccc(C(F)(F)F)cc2-c2cc(C(F)(F)F)ncn2)C(=O)N(Cc2cccc(F)c2F)N1C` [Example 249]: the “Rate of uptake inhibition (%) (1 µM)” value stood at 50%.

As to `C[C@]12CCCN1N(Cc1ccc(F)cc1F)C(=O)C(C(=O)Nc1ccc(C(F)(F)F)cc1-c1ccc(C(F)(F)F)nc1)=C2O` [Example 173], the “Rate of uptake inhibition (%) (1 µM)” value amounted to 73%.

As for `C[C@]12CCCN1N(Cc1ccc(F)cc1F)C(=O)C(C(=O)Nc1cc(F)c(Br)c(F)c1)=C2O` [Example 192], the “Rate of uptake inhibition (%) (1 µM)” value is recorded as 88%.

Regarding `COCCOc1cc(NC(=O)C2=C(O)C3(CCCC3)N(C)N(Cc3ccc(OCCN(C)CCOC)c(F)c3F)C2=O)c(-c2ncnc(C(F)(F)F)c2C)cc1C(F)(F)F` [Example 439, 7-[[2,3-Difluoro-4-[2-[2-methoxyethyl(methyl)amino]ethoxy]phenyl]methyl]-10-hydroxy-N-[5-(2-methoxyethoxy)-2-[5-methyl-6-(trifluoromethyl)pyrimidin-4-yl]-4-(trifluoromethyl)phenyl]-6-methyl-8-oxo-6,7-diazaspiro[4.5]dec-9-ene-9-carboxamide], the “Rate of uptake inhibition (%) (1 µM)” value came out at 35%.

Take `COc1cccc(-c2cc(C(F)(F)F)ccc2NC(=O)C2=C(O)[C@@]3(C)CCCN3N(Cc3ccc(C#CCOCCO)c(F)c3F)C2=O)c1OC` [Example 137]: the “Rate of uptake inhibition (%) (1 µM)” value came out at 92%.

For the compound `C[C@]12CCCN1N(Cc1cccc(F)c1F)C(=O)C(C(=O)Nc1ccc(C(F)(F)F)cc1-c1cnc(Cl)nc1)=C2O` [Example 67], the “Rate of uptake inhibition (%) (1 µM)” value was found to be 91%.

On to `CN1N(Cc2ccc(OCCNCCS(=O)(=O)O)c(F)c2F)C(=O)C(C(=O)Nc2ccc(C(F)(F)F)cc2-c2cc(C(F)(F)F)ncn2)=C(O)C12CCCC2` [Example 435, 2-[2-[2,3-Difluoro-4-[[10-hydroxy-6-methyl-8-oxo-9-[[4-(trifluoromethyl)-2-[6-(trifluoromethyl)pyrimidin-4-yl]phenyl]carbamoyl]-6,7-diazaspiro[4.5]dec-9-en-7-yl]methyl]phenoxylethy]amino]ethanesulfonic acid], for which the “Rate of uptake inhibition (%) (1 µM)” value (1 µM) was determined as 11%.

Regarding `COc1cccc(-c2cc(C(F)(F)F)ccc2NC(=O)C2=C(O)[C@@]3(C)CCCN3N(Cc3ccc(C#CCOCCOCCOCCO)c(F)c3F)C2=O)c1OC` [Example 136], the “Rate of uptake inhibition (%) (1 µM)” value is given as 80%.

Regarding `Cc1c(C#N)ncnc1-c1cc(C(F)(F)F)ccc1NC(=O)C1=C(O)C2(CCC2)N(C)N(Cc2ccc(OCCN3CCOCC3)c(F)c2F)C1=O` [Example 283], the “Rate of uptake inhibition (%) (1 µM)” value worked out at 45%.

On to `COC(=O)c1cc(F)c(CN2C(=O)C(C(=O)Nc3ccc(C(F)(F)F)cc3-c3ccc(C(F)(F)F)nc3)=C(O)[C@@]3(C)CCCN23)c(F)c1` [Example 165, Methyl 4-[[(4aR)-4-Hydroxy-4a-methyl-2-oxo-3-[[4-(trifluoromethyl)-2-[6-(trifluoromethyl)pyridin-3-yl]phenyl]carbamoyl]-6,7-dihydro-5H-pyrrolo[1,2-b]pyridazin-1-yl]methyl]-3,5-difluorobenzoate], for which the “Rate of uptake inhibition (%) (1 µM)” value came out at 75%.

For the compound `CN1[C@@H](C(C)(C)C)C(O)=C(C(=O)Nc2ccc(Br)c(C(F)(F)F)n2)C(=O)N1Cc1cccc(F)c1F` [Example 242], the “Rate of uptake inhibition (%) (1 µM)” value was found to be 69%.

For `COCCN(C)CCOCCOCCOc1ccc(CN2C(=O)C(C(=O)Nc3ccc(C(F)(F)F)cc3-c3cc(C(F)(F)F)ncn3)=C(O)C3(CCCC3)N2C)c(F)c1F` [Example 430], the “Rate of uptake inhibition (%) (1 µM)” value is recorded as 29%.

`Cc1cc(-c2cc(C(F)(F)F)ccc2NC(=O)C2=C(O)[C@@]3(C)CCCN3N(Cc3cccc(F)c3F)C2=O)cnc1C#N` [Example 101]: the “Rate of uptake inhibition (%) (1 µM)” value was determined as 57%.

On to `CN1N(Cc2ccc(OCCOCCOCCOCCC(=O)NCC(O)CO)c(F)c2F)C(=O)C(C(=O)Nc2ccc(C(F)(F)F)cc2-c2cc(C(F)(F)F)ncn2)=C(O)C12CCCC2` (stereo not drawn) [Example 424], for which the “Rate of uptake inhibition (%) (1 µM)” value is given as 17%.

In the case of `C[C@]12CCCN1N(Cc1cccc(F)c1F)C(=O)C(C(=O)Nc1ccc(Cl)cc1-c1ccc(C(F)(F)F)nc1)=C2O` [Example 86], the “Rate of uptake inhibition (%) (1 µM)” value is given as 83%.

Take `COCCOCCOCCCCCCCCN1C(=O)C(C(=O)Nc2ccc(C(F)(F)F)cc2-c2cc(C(F)(F)F)ncn2)=C(O)[C@@]2(C)CCCN12` [Example 236, (4aR)-4-Hydroxy-1-[8-[2-(2-methoxyethoxy)ethoxy]octyl]-4a-methyl-2-oxo-N-[4-(trifluoromethyl)-2-[6-(trifluoromethyl)pyrimidine-4-yl]phenyl]-6,7-dihydro-5H-pyrrolo[1,2-b]pyridazine-3-carboxamide]: the “Rate of uptake inhibition (%) (1 µM)” value is 60%.

In the case of `C[C@]12CCCN1N(Cc1cccc(F)c1F)C(=O)C(C(=O)Nc1ccc(C(F)(F)F)cc1-c1ccc(C(F)(F)F)nc1Br)=C2O` [Example 85], the “Rate of uptake inhibition (%) (1 µM)” value came out at 71%.

`Cc1c(Cl)ncnc1-c1cc(C(F)(F)F)ccc1NC(=O)C1=C(O)[C@H](C(C)(C)C)N(C)N(Cc2ccc(OCCN3CCOCC3)c(F)c2F)C1=O` [Example 276]: the “Rate of uptake inhibition (%) (1 µM)” value is recorded as 68%.

Consider `CC(C)[C@H]1C(O)=C(C(=O)Nc2ccc(C(F)(F)F)cc2-c2ccc(C(F)(F)F)nc2)C(=O)N(Cc2ccc(OCCN3CCOCC3)c(F)c2F)N1C` [Example 280], for which the “Rate of uptake inhibition (%) (1 µM)” value is recorded as 50%.

Turning to `C[C@]12CCCN1N(Cc1cccc(F)c1Cl)C(=O)C(C(=O)Nc1cc(F)c(Br)c(F)c1)=C2O` [Example 174], the “Rate of uptake inhibition (%) (1 µM)” value amounted to 87%.
